# Tests used:
# Human JNK1α1 = Human JNK1α1 (Homo sapiens, UniProt P45983); test: JNK assay in vitro, phosphorylation of GST-ATF2 (19-96) with [γ-33P] ATP; format: biochemical; conditions: 2 nM enzyme, 1 μM ATF2, 6 μM ATP (Km), 30° C. for 30 min, ten concentration curves; read-out: IC50 JNK1
# Experimental: (§1) JNK activity was measured by phosphorylation of GST-ATF2 (19-96) with [γ-^33P] ATP. The enzyme reaction was conducted at Km concentrations of ATP and the substrate at final volume of 40 μl in buffer containing 25 mM HEPES, pH 7.5, 2 mM dithiothreitol, 150 mM NaCl, 20 mM MgCl2, 0.001% Tween® 20, 0.1% BSA and 10% DMSO. Human JNK2α2 assay contains 1 nM enzyme, 1 μM ATF2, 8 μM ATP with 1 uCi [γ-^33P] ATP. Human JNK1α1 assay contains 2 nM enzyme, 1 μM ATF2, 6 μM ATP with 1 μCi [γ-^33P] ATP. Human JNK3 (Upstate Biotech #14-501M) assay contains 2 nM enzyme, 1 μM ATF2, 4 μM ATP with 1 μCi [γ-^33P] ATP. The enzyme assay was carried out in the presence or absence of several compound concentrations. JNK and compound were pre-incubated for 10 min., followed by initiation of the enzymatic reaction by adding ATP and the substrate. The reaction mixture was incubated at 30° C. for 30 min. At the end of incubation, the reaction was terminated by transferring 25 μl of the reaction mixture to 150 μl of 10% glutathione Sepharose® slurry (Amersham #27-4574-01) containing 135 mM EDTA. The reaction product was captured on the affinity resin, and washed on a filtration plate (Millipore, MABVNOB50) with phosphate buffered saline for six times to remove free radionucleotide. The incorporation of ^33P into ATF2 was quantified on a microplate scintillation counter (Packard Topcount). Compound inhibition potency on JNK was measured by IC50 value generated from ten concentration inhibition curves fitted into the 3-parameter model: % inhibition=Maximum/(1+(IC50/[Inhibitor])^slope). Data were analyzed on Microsoft Excel for parameter estimation.
# Human JNK2α2 = Human JNK2α2 (Homo sapiens, UniProt P45984); test: as above; format: biochemical; conditions: 1 nM enzyme, 1 μM ATF2, 8 μM ATP (Km), 30° C. for 30 min, ten concentration curves; read-out: IC50 JNK2
# Sequence of Human JNK2α2 (P45984 whole entry): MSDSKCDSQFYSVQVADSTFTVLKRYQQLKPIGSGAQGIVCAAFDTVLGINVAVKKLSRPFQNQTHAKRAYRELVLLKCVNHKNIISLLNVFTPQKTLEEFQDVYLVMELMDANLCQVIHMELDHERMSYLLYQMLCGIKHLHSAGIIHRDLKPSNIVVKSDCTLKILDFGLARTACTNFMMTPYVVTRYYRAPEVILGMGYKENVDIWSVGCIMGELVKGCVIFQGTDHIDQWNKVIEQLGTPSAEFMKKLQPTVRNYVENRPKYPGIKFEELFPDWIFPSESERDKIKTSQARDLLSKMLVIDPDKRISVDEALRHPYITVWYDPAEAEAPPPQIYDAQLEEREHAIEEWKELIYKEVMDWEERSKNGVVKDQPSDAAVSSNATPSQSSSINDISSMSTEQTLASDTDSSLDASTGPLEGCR
# Experimental: as §1
# Sequence of Human JNK1α1 (P45983 1-384 isoform P45983-2): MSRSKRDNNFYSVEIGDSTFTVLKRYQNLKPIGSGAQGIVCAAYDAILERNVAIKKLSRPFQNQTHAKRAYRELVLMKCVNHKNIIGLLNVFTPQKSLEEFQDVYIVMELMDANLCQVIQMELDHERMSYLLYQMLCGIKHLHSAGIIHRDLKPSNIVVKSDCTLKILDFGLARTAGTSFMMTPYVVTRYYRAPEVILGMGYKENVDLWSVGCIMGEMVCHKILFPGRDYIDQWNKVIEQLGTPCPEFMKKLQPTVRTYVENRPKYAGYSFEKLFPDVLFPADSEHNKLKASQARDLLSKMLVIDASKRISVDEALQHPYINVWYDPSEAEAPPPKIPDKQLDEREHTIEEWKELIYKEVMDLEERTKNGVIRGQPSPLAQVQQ
SMILES,melting point,IC50 (Human JNK1α1),IC50 (Human JNK2α2)
"Nc1cc(=O)n([C@@H]2CC[C@@H](O)C2)c2nc(NC3CCCCC3)ncc12 (racemic) [Compound I-1, 5-Amino-2-cyclohexylamino-8-((1R,3R)-3-hydroxy-cyclopentyl)-8H-pyrido[2,3-d]pyrimidin-7-one]",169.5 to 170 °C,0.0111 µM,0.0258 µM
"Nc1cc(=O)n(C2CCC2)c2nc(NC3CCCCC3)ncc12 [Compound I-3, 5-Amino-8-cyclobutyl-2-cyclohexylamino-8H-pyrido[2,3-d]pyrimidin-7-one]",120 to 121.5 °C,0.0179 µM,0.0403 µM
"Nc1cc(=O)n(C2CCCC2)c2nc(N[C@H]3CC[C@H](O)CC3)ncc12 [Compound I-5, 5-Amino-8-cyclopentyl-2-(4-hydroxy-cyclohexylamino)-8H-pyrido[2,3-d]pyrimidin-7-one]",246.5 to 248 °C,0.0205 µM,0.0439 µM
"Nc1cc(=O)n(C2CCCCC2)c2nc(N[C@H]3CC[C@H](C(=O)N4CCOCC4)CC3)ncc12 [Compound I-7, 5-Amino-8-cyclohexyl-2-[4-(morpholine-4-carbonyl)-cyclohexylamino]-8H-pyrido[2,3-d]pyrimidin-7-one]",185 to 203 °C,0.0316 µM,0.0397 µM
"Cc1c(N)c2cnc(N[C@H]3CC[C@H](C(=O)N4CCCC4)CC3)nc2n(C2CCC2)c1=O [Compound I-9, 5-Amino-8-cyclobutyl-6-methyl-2-[4-(pyrrolidine-1-carbonyl)-cyclohexylamino]-8H-pyrido[2,3-d]pyrimidin-7-one]",276.6 to 278.4 °C,0.0344 µM,0.0377 µM
"CC(=O)N[C@H]1CC[C@H](Nc2ncc3c(N)cc(=O)n(CCCO)c3n2)CC1 [Compound I-42, N-{4-[5-Amino-8-(3-hydroxy-propyl)-7-oxo-7,8-dihydro-pyrido[2,3-d]pyrimidin-2-ylamino]-cyclohexyl}-acetamide]",> 300 °C,,
"COC(=O)N[C@H]1CC[C@H](Nc2ncc3c(N)cc(=O)n(CCCO)c3n2)CC1 [Compound I-43, {4-[5-Amino-8-(3-hydroxy-propyl)-7-oxo-7,8-dihydro-pyrido[2,3-d]pyrimidin-2-ylamino]-cyclohexyl}-carbamic acid methyl ester]",190 to 191 °C,,
"Cc1c(N)c2cnc(NC3CCCCC3)nc2n([C@@H]2CCOC2)c1=O [Compound I-44, 5-Amino-2-cyclohexylamino-6-methyl-8-(R)-tetrahydro-furan-3-yl-8H-pyrido[2,3-d]pyrimidin-7-one]",225 to 226 °C,,
"Nc1cc(=O)n(C2CCCC2)c2nc(Nc3ccccc3)ncc12 [Compound I-45, 5-Amino-8-cyclopentyl-2-phenylamino-8H-pyrido[2,3-d]pyrimidin-7-one]",128.3 to 130 °C,,
"Nc1cc(=O)n(CC2CC2)c2nc(NC3CCOCC3)ncc12 [Compound I-46, 5-Amino-8-cyclopropylmethyl-2-(tetrahydro-pyran-4-ylamino)-8H-pyrido[2,3-d]pyrimidin-7-one]",135 to 137.4 °C,,
"Cc1c(N)c2cnc(N[C@H]3CC[C@H](C(=O)N4CCC(O)CC4)CC3)nc2n([C@@H]2CCOC2)c1=O [Compound I-47, 5-Amino-2-[4-(4-hydroxy-piperidine-1-carbonyl)-cyclohexylamino]-6-methyl-8-(R)-tetrahydro-furan-3-yl-8H-pyrido[2,3-d]pyrimidin-7-one]",173 to 174 °C,,
"CC(C)c1c(N)c2cnc(NC3CCCCC3)nc2n(C2CCC2)c1=O [Compound I-49, 5-Amino-8-cyclobutyl-2-cyclohexylamino-6-isopropyl-8H-pyrido[2,3-d]pyrimidin-7-one]",277.5 to 278 °C,,
"CCn1c(=O)cc(N)c2cnc(NC3CCOCC3)nc21 [Compound I-50, 5-Amino-8-ethyl-2-(tetrahydro-pyran-4-ylamino)-8H-pyrido[2,3-d]pyrimidin-7-one]",235 to 238.2 °C,,
"Nc1cc(=O)n(C2CCCCC2)c2nc(NC3CCOCC3)ncc12 [Compound I-51, 5-Amino-8-cyclohexyl-2-(tetrahydro-pyran-4-ylamino)-8H-pyrido[2,3-d]pyrimidin-7-one]",160 to 164 °C,,
"Cc1c(N)c2cnc(NC3CCN(S(C)(=O)=O)CC3)nc2n([C@@H]2CCOC2)c1=O [Compound I-53, 5-Amino-2-(1-methanesulfonyl-piperidin-4-ylamino)-6-methyl-8-(R)-tetrahydro-furan-3-yl-8H-pyrido[2,3-d]pyrimidin-7-one]",> 300 °C,,
"Nc1cc(=O)n(C2CC2)c2nc(NC3CCOCC3)ncc12 [Compound I-54, 5-Amino-8-cyclopropyl-2-(tetrahydro-pyran-4-ylamino)-8H-pyrido[2,3-d]pyrimidin-7-one]",264.4 to 266.8 °C,,
"Nc1cc(=O)n(CC2CC2)c2nc(NC3CCC3)ncc12 [Compound I-55, 5-Amino-2-cyclobutylamino-8-cyclopropylmethyl-8H-pyrido[2,3-d]pyrimidin-7-one]",236.1 to 239.1 °C,,
"CCOC(=O)N1CCC(Nc2ncc3c(N)c(C)c(=O)n(C4CCC4)c3n2)CC1 [Compound I-56, 4-(5-Amino-8-cyclobutyl-6-methyl-7-oxo-7,8-dihydro-pyrido[2,3-d]pyrimidin-2-ylamino)-piperidine-1-carboxylic acid ethyl ester]",201.3 to 202.6 °C,,
"Nc1cc(=O)n(C2CCCCC2)c2nc(NC3CCC(F)(F)CC3)ncc12 [Compound I-57, 5-Amino-8-cyclohexyl-2-(4,4-difluoro-cyclohexylamino)-8H-pyrido[2,3-d]pyrimidin-7-one]",240 to 244.1 °C,,
"CC(=O)N1CCC(Nc2ncc3c(N)c(C)c(=O)n(C4CCCC4)c3n2)CC1 [Compound I-59, 2-(1-Acetyl-piperidin-4-ylamino)-5-amino-8-cyclopentyl-6-methyl-8H-pyrido[2,3-d]pyrimidin-7-one]",281 to 283 °C,,
"Cc1ccccc1Nc1ncc2c(N)c(C)c(=O)n(C3CCC3)c2n1 [Compound I-62, 5-Amino-8-cyclobutyl-6-methyl-2-o-tolylamino-8H-pyrido[2,3-d]pyrimidin-7-one]",186 to 187 °C,,
"Nc1cc(=O)n(Cc2ccccc2)c2nc(NC3CCCCC3)ncc12 [Compound I-66, 5-Amino-8-benzyl-2-cyclohexylamino-8H-pyrido[2,3-d]pyrimidin-7-one]",221.9 to 223.8 °C,,
"CC(=O)c1c(N)c2cnc(NC3CCCCC3)nc2n(C2CCC2)c1=O [Compound I-68, 6-Acetyl-5-amino-8-cyclobutyl-2-cyclohexylamino-8H-pyrido[2,3-d]pyrimidin-7-one]",256 to 257 °C,,
"Nc1cc(=O)n(Cc2ccccc2)c2nc(NC3CCOCC3)ncc12 [Compound I-69, 5-Amino-8-benzyl-2-(tetrahydro-pyran-4-ylamino)-8H-pyrido[2,3-d]pyrimidin-7-one]",245.6 to 246.8 °C,,
"Cc1cccc(C)c1Nc1ncc2c(N)c(C)c(=O)n(C3CCC3)c2n1 [Compound I-70, 5-Amino-8-cyclobutyl-2-(2,6-dimethyl-phenylamino)-6-methyl-8H-pyrido[2,3-d]pyrimidin-7-one]",213 to 214 °C,,
